Here are results for 5 molecules from PMC10615877 (Chemistry (Weinheim an der Bergstrasse, Germany), 2023).

SMILES strings stand for the structures. Like-named read-outs stand apart in the source and are kept apart here. Some results are limits rather than exact numbers.

Experiment [1] concerns thioredoxin reductase (TrxR). To be noted: for inhibition: 100 µM.
The next experiment concerns MDA-MB-468 cell line. To be noted: TNBC MDA-MB-468 cell line; cited from earlier work.
The next experiment relates to Caki-1. Nature of the experiment: Presto Blue cell viability assay, Caki-1. Type of experiment: cell-based, human. To be noted: read-out: IC50 Caki-1 (renal), 72 hours incubation.
Experiment [2] relates to MDA-MB-157 cells. Conditions: read-out: IC50 2D MDA-MB-157; cited from earlier work.
For another experiment, the system named is plasmid pBR322 DNA. Nature of the experiment: Electrophoresis mobility shift assay with plasmid DNA. Conditions: no reducing agent, metal/DNAbp 0.2-1.0, 20 h, 37 °C.
Another experiment deals with IMR90. Nature of the experiment: Presto Blue cell viability assay, non-cancerous lung fibroblasts IMR90. Type of experiment: cell-based, human. To be noted: read-out: IC50 IMR90 (lung fibroblasts), 72 hours incubation.
A further experiment deals with A2780. Nature of the experiment: Presto Blue cell viability assay, A2780. Type of experiment: cell-based, human. To be noted: read-out: IC50 A2780 (ovarian), 72 hours incubation.
In the next experiment the test system is SKOV-3. Put plainly: Presto Blue cell viability assay, SKOV-3. Type of experiment: cell-based, human. Conditions: read-out: IC50 SKOV-3 (ovarian), 72 hours incubation.
The subject of the next experiment is T24. Nature of the experiment: Presto Blue cell viability assay, T24. Type of experiment: cell-based, human. To be noted: read-out: IC50 T24 (bladder), 72 hours incubation.
A further experiment deals with MDA-MB-231. Nature of the experiment: Presto Blue cell viability assay, MDA-MB-231. Type of experiment: cell-based, human. To be noted: read-out: IC50 MDA-MB-231 (breast), 72 hours incubation.
Experiment [3] relates to MDA-MB-157 cells. Put plainly: PrestoBlue cell viability, MDA-MB-157 2D monolayer. Type of experiment: cell-based. To be noted: read-out: IC50 2D MDA-MB-157; 72 hours incubation, Presto Blue.
In the next experiment the test system is A549. Nature of the experiment: Presto Blue cell viability assay, A549. To be noted: read-out: IC50 A549 (lung), 72 hours incubation. Type of experiment: cell-based, human.
Another experiment concerns MDA-MB-231 cell line. Type of experiment: cell-based, human. To be noted: IC20 concentration, 24 h.
For experiment [4], the system named is MDA-MB-231 cells. Conditions: MDA-MB-231 TNBC cell line, oxaliplatin treatment alone; cited from earlier work.
Experiment [5] relates to human umbilical vein endothelial cells (HUVEC). Nature of the experiment: Endothelial tube formation assay. To be noted: IC10 concentration, 16 h. Type of experiment: cell-based.
In experiment [6] the test system is MDA-MB-231 cells. Put plainly: Annexin V / propidium iodide apoptosis assay by flow cytometry. Type of experiment: cell-based, human. To be noted: 72 h incubation with IC50, MDA-MB-231.

For the molecule `CC(=O)OC[C@H]1O[C@@H]([S-])[C@H](OC(C)=O)[C@@H](OC(C)=O)[C@@H]1OC(C)=O.CCP(CC)CC.[Au+]` [Auranofin], the “inhibition of TrxR activity” value in [1] (1 μM of metal compound, 72 h, MDA-MB-231 cells) is listed as 100%. This molecule displayed an inhibition in [1] of 100%.

As to `N.N.O=C([O-])C1(C(=O)[O-])CCC1.[Pt+2]` [Carboplatin], the apoptosis entry in the experiment with MDA-MB-468 cell line is recorded as “ca. 60%”.

For `N.N.[Cl][Pt][Cl]` [cisplatin], the IC50 in the experiment on Caki-1 was 3.21 ± 0.88 µM; with MDA-MB-157 cells [2] it was 21.6 µM; in the experiment on IMR90 it was 6.21 ± 0.08 µM; in the experiment on A2780, 1.4 ± 0.31 µM; with SKOV-3, 3.84 ± 0.39 µM; with T24 it was 2.86 ± 0.36 µM. Moreover, in the experiment on MDA-MB-231, the 50% inhibitory concentration (IC50) stood at 7.46 ± 0.62 µM. Moreover, the “plasmid pBR322 band mobility (metal-DNA binding)” value (“plasmid pBR322 band mobility” below) in the experiment on plasmid pBR322 DNA was “displayed bands for expected DNA-drug interactions”. The inhibition in [1] came out at 26.4%.

As for `O=C1[O][Pt]2([NH][C@@H]3CCCC[C@H]3[NH]2)[O]C1=O` [oxaliplatin], the IC50 in the experiment with Caki-1 was 8.21 ± 0.07 µM; in the experiment with MDA-MB-157 cells [3], 26.6 ± 1.7 µM; with IMR90, 29.8 ± 1.3 µM; with A2780 it was 1.82 ± 0.02 µM; in the experiment on SKOV-3, 42.6 ± 3.6 µM; in the experiment on A549, 15.8 µM. Moreover, the figures for the IC50 in the experiment with T24 and with MDA-MB-231 were over 100 µM and 10.1 ± 0.89 µM, respectively. In addition, the “plasmid pBR322 band mobility” value in the experiment with plasmid pBR322 DNA is “displayed bands for expected DNA-drug interactions”. The molecule also registered an inhibition in experiment [1] of 29.7%. Besides, the “inhibition of migration (wound-healing)” value in the experiment on MDA-MB-231 cell line is reported as 20%. Also, the increase in apoptosis with MDA-MB-231 cells [4] was 30%. The “disruption of tube length (TL)” value in experiment [5] is 8%. Further, the “disruption of tube nodes (TN)” value in experiment [5] is recorded as 14%. The “increase of early apoptosis” value with MDA-MB-231 cells [6] is given as 30%.

With `N.N.[Cl-].[Cl-].[OH-].[OH-].[Pt+4]` [oxo-cisplatin, [Pt(NH3)2Cl2(OH)2]], the IC50 in the experiment with Caki-1 is 33.1 ± 2.9 µM; in the experiment on IMR90, 53.5 ± 4 µM; in the experiment on A2780, 2.7 ± 0.4 µM; in the experiment with SKOV-3, 38.6 ± 4.4 µM; in the experiment on A549, 67.8 µM; in the experiment on T24, 69.9 ± 4.9 µM. In addition, in the experiment on MDA-MB-231, the IC50 was found to be 52.02 ± 0.08 µM. Also, the “plasmid pBR322 band mobility” value in the experiment with plasmid pBR322 DNA is “did not change”. The inhibition in [1] came to 66%.

By inhibition is commonly meant the percentage by which the read-out fell short of the control. One may read the IC50 as the concentration that inhibits the measured activity by half.
